Measurements from patent US5032109A, “Electrolytic transdermal delivery of polypeptides” (Drug Delivery Systems Inc., priority 1989, dated 1991).
Structures can show the parent of a compound that is named as a salt.

Experiments:
[1] = from Herkovits et al. 1978, cited from earlier work; for Setschenow constant, for --CH2--: average hydrophobic group; for Setschenow constant, for peptide: average peptide group; for Setschenow constant, sum: peptide plus hydrophobic; for -F.° (free energy of transfer): transfer from water to water plus cosolvent
[2] = Electrical conductivity of urine in diabetes insipidus volunteers wearing Pitressin patches (Model Example 2); type: in vivo, human; conditions: powered large patch, 300 units Pitressin, five days
Protocol: Six adult male volunteers each having been diagnosed as having diabetes insipidus are tested. Three are fitted with the large-size human patch, as in Example 2, and the three controls are fitted with drug-loaded, identical patches without batteries.
The drug reservoirs of the large electrolytic patches contain 15 ml (300 units) of Pitressin (Parke-aDavis Co., Morris Plains, N.J.). The return reservoir contains 0.9 percent saline buffered to pH 7.2 with ammonium dihydrogen phosphate.
Urine samples are taken from each subject three times per day for five days.

[3] = Total urine output of beagle dogs wearing lypressin electrolytic patches (Model Example 1); type: in vivo; conditions: four beagle dogs, powered patch, 10 ua/cm^2, ten days, Diapid 0.185 mg lypressin/ml
Protocol: Eight beagle dogs are employed. All of them are clipped on the back, washed with castille soap, and fitted with the small animal electrolytic patches of Example 1, four of them without batteries.
The drug reservoir of each patch contains 6 ml. Diapid 50 USP, 0.185 mg lypressin/ml. The return reservoir contains 0.9 percent saline. A current regulator is set to deliver 10 ua/cm^2.
Over a period of ten days the total urine output of each dog is measured by standard techniques.

[4] = Blood pressure of hypertensive volunteers wearing atriopeptin patches (Model Example 3); type: in vivo, human; conditions: hypertensive female volunteers, powered patches, 0.01M atriopeptin in 0.1M sodium perchlorate, about 10 ua/cm^2
Protocol: Ten adult female volunteers, diagnosed as having hypertension, are chosen for this experiment. All are fitted with the large-size electrolytic transdermal patch, as in Example 2. […] Five control patches have no batteries. […] The blood pressure of the ten subjects is measured four times a day.

[5] = parameters: species or system human; conditions: in vivo
From the text: Ten adult female volunteers, diagnosed as having hypertension, are chosen for this experiment. All are fitted with the large-size electrolytic transdermal patch, as in Example 2. […] Five control patches have no batteries.

drug delivered per hour [5]	Molecule	Setschenow constant, for --CH2-- [1]	Setschenow constant, for peptide [1]	Setschenow constant, sum [1]	-F.° (free energy of transfer) [1] [cal/mo]	electrical conductivity of the urine versus control subjects (patches without batteries) [2]	average total urine volume versus control dogs (patches without batteries) [3]	average blood pressure versus controls (patches without batteries) [4]
–	[I-].[Na+] [Sodium iodide]	0.01	-0.087	-0.077	-105	–	–	–
–	CCO [Ethanol]	-0.014	+0.037	0.023	31	–	–	–
–	[O-][Cl+3]([O-])([O-])O [Sodium perchlorate]	0.021	-0.097	-0.076	-104	–	–	–
–	N=C(N)N [Guanidine hydrochloride, guanidine hydrochloride]	-0.027	-0.061	-0.088	-120	–	–	–
–	CCC(=O)[O-].[Na+] [Sodium proprionate]	–	–	-0.017	-23	–	–	–
–	[Cl-].[Na+] [Sodium chloride]	0.033	-0.037	-0.004	-5	–	–	–
–	[I-].[K+] [Potassium iodide]	0.01	-0.083	-0.073	-100	–	–	–
–	NC(N)=O [Urea]	-0.01	-0.018	-0.028	-38	–	–	–
–	NC(=O)CC[C@@H]1NC(=O)[C@H](Cc2ccccc2)NC(=O)[C@H](Cc2ccc(O)cc2)NC(=O)[C@@H](N)CSSC[C@@H](C(=O)N2CCC[C@H]2C(=O)N[C@@H](CCCN=C(N)N)C(=O)NCC(N)=O)NC(=O)[C@H](CC(N)=O)NC1=O [Pitressin, vasopressin]	–	–	–	–	significantly higher	–	–
–	CCCC(=O)[O-].[Na+] [Sodium butyrate]	–	–	-0.038	-51	–	–	–
–	[Br-].[Na+] [Sodium bromide]	0.025	-0.037	-0.012	-16	–	–	–
–	NCCCC[C@H](NC(=O)[C@@H]1CCCN1C(=O)[C@@H]1CSSC[C@H](N)C(=O)N[C@@H](Cc2ccc(O)cc2)C(=O)N[C@@H](Cc2ccccc2)C(=O)N[C@@H](CCC(N)=O)C(=O)N[C@@H](CC(N)=O)C(=O)N1)C(=O)NCC(N)=O [lypressin]	–	–	–	–	–	significantly lower	–
about 200 nanograms of drug per hour	atriopeptin	–	–	–	–	–	–	significantly lower
–	C1COCCO1 [Dioxane]	-0.013	+0.029	0.016	22	–	–	–
–	CCCNC(N)=O [Propylurea]	–	–	-0.047	-64	–	–	–
